According to US7411083B2, “Substituted acetic acid derivatives” (Wyeth, priority 2003, dated 2008):

target: T1, recombinant human plasminogen activator inhibitor-1 (PAI-1) (Homo sapiens, UniProt P05121); assay: Screening for PAI-1 inhibition (residual tPA activity, Spectrozyme-tPA chromogenic substrate); type: biochemical; settings: test compound at 100 Um; pH 6.6 buffer, 140 nM PAI-1, 70 nM tPA
T1 construct: purchased Molecular Innovations, Royal Oak, Mich
How it was run: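 PAI-1 at 140 nM, pH 6.6 buffer, preincubated 1 h at room temperature with compound (1-100 μM final, ≤0.2% DMSO), then 70 nM tPA added for 30 min. Residual tPA activity read by Spectrozyme-tPA absorbance at 405 nm at 0 and 60 min. Inhibition taken as residual tPA activity.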

T1 sequence (P05121 24-402): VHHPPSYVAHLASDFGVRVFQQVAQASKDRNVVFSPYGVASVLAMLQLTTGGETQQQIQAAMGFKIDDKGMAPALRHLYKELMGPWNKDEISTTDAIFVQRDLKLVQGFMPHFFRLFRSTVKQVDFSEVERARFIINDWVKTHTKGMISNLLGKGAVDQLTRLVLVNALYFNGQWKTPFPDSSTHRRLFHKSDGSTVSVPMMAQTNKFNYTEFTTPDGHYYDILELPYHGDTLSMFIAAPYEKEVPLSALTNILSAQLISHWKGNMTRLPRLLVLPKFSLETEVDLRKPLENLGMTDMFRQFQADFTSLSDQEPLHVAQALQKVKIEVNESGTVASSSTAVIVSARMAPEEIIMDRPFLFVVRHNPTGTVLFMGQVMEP

| SMILES | inhibition at 100 µM [%] |
| --- | --- |
| O=C(O)CO/N=C/c1cccc(-c2cccc(OCc3ccc(Br)cc3)c2)c1 [Compound 60, {[((1E)-{3′-[(4-bromobenzyl)oxy]-1,1′-biphenyl-3-yl}methylidene)amino]oxy}acetic acid] | 88 |
| C=CCn1cc(/C=N/OCC(=O)O)c2cc(OCc3ccc(Cl)cc3)ccc21 [Compound 45, {[((1E)-{1-allyl-5-[(4-chlorobenzyl)oxy]-1H-indol-3-yl}methylidene)amino]oxy}acetic acid] | 96 |
| C#CCn1cc(/C=N/OCC(=O)O)c2cc(OCc3ccc(Cl)cc3)ccc21 [Compound 44, [({(1E)-[5-[(4-chlorobenzyl)oxy]-1-(2-propynyl)-1H-indol-3-yl]methylidene}amino)oxy]acetic acid] | 83 |
| O=C(O)CO/N=C/c1cn(Cc2ccccc2)c2ccc(OCc3ccc(Cl)cc3)cc12 [Compound 46, {[((1E)-{1-benzyl-5-[(4-chlorobenzyl)oxy]-1H-indol-3-yl}methylidene)amino]oxy}acetic acid] | 86 |
| CC(C)(C)c1ccc(COc2ccc3c(c2)c(/C=N/OCC(=O)O)cn3Cc2ccccc2)cc1 [Compound 6, {[((1E)-{1-benzyl-5-[(4-tert-butylbenzyl)oxy]-1H-indol-3-yl}methylidene)amino]oxy}acetic acid] | 68 |
| O=C(O)CO/N=C/c1cccc(-c2cccc(OCc3ccccc3)c2)c1 [Compound 64, [({(1E)-[3′-(benzyloxy)-1,1′-biphenyl-3-yl]methylidene}amino)oxy]acetic acid] | 92 |
| O=C(O)CO/N=C/c1ccc(-c2cccc(OCc3cccc(Br)c3)c2)cc1 [Compound 91, {[((1E)-{3′-[(3-bromobenzyl)oxy]-1,1′-biphenyl-4-yl}methylidene)amino]oxy}acetic acid] | 77 |
| C#CCn1cc(/C=N/OCC(=O)O)c2cc(OCc3ccc(Cl)c(Cl)c3)ccc21 [Compound 51, [({(1E)-[5-[(3,4-dichlorobenzyl)oxy]-1-(2-propynyl)-1H-indol-3-yl]methylidene}amino)oxy]acetic acid] | 86 |
| O=C(O)CO/N=C/c1cccc(-c2cccc(OCc3cc(C(F)(F)F)cc(C(F)(F)F)c3)c2)c1 [Compound 61, ({[(1E)-(3′-{[3,5-bis(trifluoromethyl)benzyl]oxy}-1,1′-biphenyl-3-yl)methylidene]amino}oxy)acetic acid] | 74 |
| CCn1cc(/C=N/OCC(=O)O)c2cc(OCc3cccc(C(F)(F)F)c3)ccc21 [Compound 23, ({[(1E)-(1-ethyl-5-{[3-(trifluoromethyl)benzyl]oxy}-1H-indol-3-yl)methylidene]amino}oxy)acetic acid] | 56 |
| C#CCn1cc(/C=N/OCC(=O)O)c2cc(OCc3ccc(C(C)(C)C)cc3)ccc21 [Compound 33, [({(1E)-[5-[(4-tert-butylbenzyl)oxy]-1-(2-propynyl)-1H-indol-3-yl]methylidene}amino)oxy]acetic acid] | 91 |
| O=C(O)CO/N=C/c1cccc(-c2ccc(OCc3cccc(Cl)c3)cc2)c1 [Compound 78, {[((1E)-{4′-[(3-chlorobenzyl)oxy]-1,1′-biphenyl-3-yl}methylidene)amino]oxy}acetic acid] | 23 |
| O=C(O)CO/N=C/c1ccc(-c2cccc(OCc3ccc(Cl)cc3)c2)cc1 [Compound 95, {[((1E)-{3′-[(4-chlorobenzyl)oxy]-1,1′-biphenyl-4-yl}methylidene)amino]oxy}acetic acid] | 27 |
| O=C(O)CO/N=C/c1cccc(-c2ccc(OCc3ccccc3)cc2)c1 [Compound 79, [({(1E)-[4′-(benzyloxy)-1,1′-biphenyl-3-yl]methylidene}amino)oxy]acetic acid] | 53 |
| C=CCn1cc(/C=N/OCC(=O)O)c2cc(OCc3ccc(C(F)(F)F)cc3)ccc21 [Compound 1, ({[(1E)-(1-allyl-5-{[4-(trifluoromethyl)benzyl]oxy}-1H-indol-3-yl)methylidene]amino}oxy)acetic acid] | 86 |
| C=CCn1cc(/C=N/OCC(=O)O)c2cc(OCc3ccc(Cl)c(Cl)c3)ccc21 [Compound 52, {[((1E)-{1-allyl-5-[(3,4-dichlorobenzyl)oxy]-1H-indol-3-yl}methylidene)amino]oxy}acetic acid] | 72 |
| CCn1cc(/C=N/OCC(=O)O)c2cc(OCc3ccccc3Cl)ccc21 [Compound 28, {[((1E)-{5-[(2-chlorobenzyl)oxy]-1-ethyl-1H-indol-3-yl}methylidene)amino]oxy}acetic acid] | 70 |
| O=C(O)CO/N=C/c1cccc(-c2cccc(OCc3ccc(Cl)c(Cl)c3)c2)c1 [Compound 68, {[((1E)-{3′-[(3,4-dichlorobenzyl)oxy]-1,1′-biphenyl-3-yl}methylidene)amino]oxy}acetic acid] | 83 |
| O=C(O)CO/N=C/c1cn(Cc2ccccc2)c2ccc(OCc3ccc(Cl)c(Cl)c3)cc12 [Compound 53, {[((1E)-{1-benzyl-5-[(3,4-dichlorobenzyl)oxy]-1H-indol-3-yl}methylidene)amino]oxy}acetic acid] | 76 |
| CCn1cc(/C=N/OCC(=O)O)c2cc(OCc3cccc(Br)c3)ccc21 [Compound 14, {[((1E)-{5-[(3-bromobenzyl)oxy]-1-ethyl-1H-indol-3-yl}methylidene)amino]oxy}acetic acid] | 80 |
| O=C(O)CO/N=C/c1cn(Cc2ccccc2)c2ccc(OCc3ccccc3)cc12 [Compound 41, [({(1E)-[1-benzyl-5-(benzyloxy)-1H-indol-3-yl]methylidene}amino)oxy]acetic acid] | 96 |
| C=CCn1cc(/C=N/OCC(=O)O)c2cc(OCc3cccc(C(F)(F)F)c3)ccc21 [Compound 22, ({[(1E)-(1-allyl-5-{[3-(trifluoromethyl)benzyl]oxy}-1H-indol-3-yl)methylidene]amino}oxy)acetic acid] | 80 |
| CC(C)(C)c1ccc(COc2ccc(-c3cccc(/C=N/OCC(=O)O)c3)cc2)cc1 [Compound 74, {[((1E)-{4′-[(4-tert-butylbenzyl)oxy]-1,1′-biphenyl-3-yl}methylidene)amino]oxy}acetic acid] | 34 |

The next lines start with the values.

| inhibition at 100 µM [%] | SMILES |
| --- | --- |
| 78 | Cc1ccc(COc2ccc(/C=N/OCC(=O)O)cc2OCc2ccc(C)cc2)cc1 [Compound 120, {[((1E)-{3,4-bis[(4-methylbenzyl)oxy]phenyl}methylidene)amino]oxy}acetic acid] |
| 93 | O=C(O)CO/N=C/c1ccc(OCc2ccc(C(F)(F)F)cc2)c(OCc2ccc(C(F)(F)F)cc2)c1 [Compound 114, ({[(1E)-(3,4-bis{[4-(trifluoromethyl)benzyl]oxy}phenyl)methylidene]amino}oxy)acetic acid] |
| 60 | O=C(O)CO/N=C/c1cccc(C#CCOc2ccc(Br)cc2)c1 [Compound 169, {[((1E)-{3-[3-(4-bromophenoxy)prop-1-ynyl]phenyl}methylidene)amino]oxy}acetic acid] |
| 63 | Cc1cccc(COc2cccc(-c3ccc(/C=N/OCC(=O)O)cc3)c2)c1 [Compound 100, {[((1E)-{3′-[(3-methylbenzyl)oxy]-1,1′-biphenyl-4-yl}methylidene)amino]oxy}acetic acid] |
| 88 | O=C(O)CO/N=C/c1ccc(OCc2cccc(Cl)c2)cc1OCc1cccc(Cl)c1 [Compound 127, {[((1E)-{2,4-bis[(3-chlorobenzyl)oxy]phenyl}methylidene)amino]oxy}acetic acid] |
| 65 | O=C(O)CO/N=C/c1ccc(-c2cccc(OCc3ccc(Cl)c(Cl)c3)c2)cc1 [Compound 97, {[((1E)-{3′-[(3,4-dichlorobenzyl)oxy]-1,1′-biphenyl-4-yl}methylidene)amino]oxy}acetic acid] |
| 49 | CC(C)(C)c1ccc(COc2cc(/C=N/OCC(=O)O)cc(OCc3ccc(C(C)(C)C)cc3)c2)cc1 [Compound 146, {[((1E)-{3,5-bis[(4-tert-butylbenzyl)oxy]phenyl}methylidene)amino]oxy}acetic acid] |
| 61 | O=C(O)CO/N=C/c1ccc(-c2cccc(OCc3ccccc3Cl)c2)cc1 [Compound 96, {[((1E)-{3′-[(2-chlorobenzyl)oxy]-1,1′-biphenyl-4-yl}methylidene)amino]oxy}acetic acid] |
| 91 | O=C(O)CO/N=C/c1ccc(OCc2ccc(F)cc2)c(OCc2ccc(F)cc2)c1 [Compound 113, {[((1E)-{3,4-bis[(4-fluorobenzyl)oxy]phenyl}methylidene)amino]oxy}acetic acid] |
| 52 | CC(C)(C)c1ccc(OCC#Cc2cccc(/C=N/OCC(=O)O)c2)cc1 [Compound 168, {[((1E)-{3-[3-(4-tert-butylphenoxy)prop-1-ynyl]phenyl}methylidene)amino]oxy}acetic acid] |
| 87 | O=C(O)CO/N=C/c1cc(OCc2cccc(Br)c2)cc(OCc2cccc(Br)c2)c1 [Compound 147, {[((1E)-{3,5-bis[(3-bromobenzyl)oxy]phenyl}methylidene)amino]oxy}acetic acid] |
| 80 | O=C(O)CO/N=C/c1cccc(OCc2cccc(Cl)c2)c1OCc1cccc(Cl)c1 [Compound 136, {[((1E)-{2,3-bis[(3-chlorobenzyl)oxy]phenyl}methylidene)amino]oxy}acetic acid] |
| 69 | O=C(O)CO/N=C/c1cccc(C#CCOc2cc(Cl)cc(Cl)c2)c1 [Compound 171, {[((1E)-{3-[3-(3,5-dichlorophenoxy)prop-1-ynyl]phenyl}methylidene)amino]oxy}acetic acid] |
| 99 | CC(C)(C)c1ccc(COc2ccc(OCc3ccc(C(C)(C)C)cc3)c(/C=N/OCC(=O)O)c2)cc1 [Compound 156, {[((1E)-{2,5-bis[(4-tert-butylbenzyl)oxy]phenyl}methylidene)amino]oxy}acetic acid] |
